Here are results for one molecule from patent US20170027896A1, “METHODS AND COMPOSITIONS FOR THE TREATMENT OF VASCULAR MALFORMATION” (IFOM - FONDAZIONE ISTITUTO FIRC DI ONCOLOGIA MOLECOLARE, priority 2014, published 2017).

The test relates to CCM3-knockout endothelial cell line. Put plainly: Immunostaining of CCM3-knockout endothelial cell line. The class given is cell-based, mouse. As to the method:
In some experiments, endothelial cell lines from the lungs of CCM3-flox/flox mice (8-10 weeks old) were immortalized in culture through retroviral expression of polyoma middle T gene^60. […] These cells were then maintained in culture for up to 25 passages without detectable changes in the effects of this CCM3 ablation.
Drugs were added to confluent cells for 48 h before the indicated assays. The final concentrations used were: […] (all from Sigma-Aldrich). As all of these were dissolved in DMSO, control treatment (vehicle) was 0.1% DMSO final concentration, as for drug treatment.
Cells cultured in vitro were fixed and stained as described previously^46.
The following antibodies were used: anti-Pecam (hamster; MAB1398Z, Millipore); anti-b-galactosidase (chicken; ab9361, Abcam); anti-VE-cadherin (rat monoclonal; 550548, BD Biosciences); anti-VE-cadherin (goat; sc-6458, Santa Cruz); anti-active-b-catenin (mouse monoclonal clone 8E7) dephosphorylated on Ser37 and Thr41, Millipore); anti-total-b-catenin (mouse monoclonal; Cell Signaling); anti-S100a4 (rabbit; 07-2274, Millipore); anti-Klf4 (goat; AF3158, R&D); anti-CD44 (rat; 553131, BD Biosciences); anti-ID1 (rabbit; sc-488, Santa Cruz); anti-aSMA (mouse monoclonal; F3777, Sigma); anti-GFP (rabbit; A-6455, Invitrogen); anti-podocalyxin (goat; AF1556, R&D); anti-phospho-histone H3 (rabbit; ab51776, Millipore); anti-CCM3 (rabbit; Eurogentec); anti-p-Smad1 (rabbit; 9516, Cell Signaling); anti-endomucin (rabbit; sc-65495, Santa Cruz); anti-α-tubulin (mouse monoclonal; T9026, Sigma).

“Also recorded” adds a separate entry of the source.

For `CSc1ccc(/C=C2/C(C)=C(CC(=O)O)c3cc(F)ccc32)cc1` [sulindac sulfide, (Z)-5-Fluoro-2-methyl-1-[4-(methylthio)benzylidene]indene-3-acetic acid], the “apical distribution of podocalyxin” value was “re-establishes the correct apical distribution”. Moreover, where the note is “48 h”, the “VE-cadherin at cell-cell contacts” value is given as “more localized to cell-cell contacts”; the “nuclear accumulation of active b-catenin / distribution to adherens junctions” value is “restored the distribution of active b-catenin to the adherens junctions”; the “overexpression of progenitor/EndMT marker proteins (Klf4, S100a4, Id1, CD44)” value is “strongly reduced; also recorded: inhibited”.
